Laboratory results reported in patent US20230085307A1, “PYRIDAZINONE COMPOUND AND HERBICIDE” (NISSAN CHEMICAL CORPORATION, priority 2019, published 2023).

Assays:
redroot pigweed = assay: Test Example 4: herbicidal effect by soil treatment (Table 19, symbol N); assay type: in vivo, redroot pigweed (Amaranthus retroflexus); settings: amount of applied herbicide 320 g/ha
Procedure, shortened: (§1)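 Emulsion of test compound, water-diluted to predetermined amount, sprayed on soil after sowing (seed depth ~1.5 cm, sterilized diluvial soil). Greenhouse, 25–30° C. Effect graded at three weeks post-spray.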

southern crabgrass = assay: Test Example 4: herbicidal effect by soil treatment (Table 19, symbol F); assay type: in vivo, southern crabgrass (Digitaria ciliaris); settings: amount of applied herbicide 320 g/ha
Procedure, shortened: as §1

barnyard grass [1] = assay: Test Example 5: herbicidal effect by foliage application, plastic box (Table 20, symbol H); assay type: in vivo, barnyard grass (Echinochloa crus-galli); settings: foliage application, AAH 320 g/ha, evaluated three weeks after application
Procedure, shortened: (§2)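 Post-emergence foliar test in sterilized diluvial soil. Compound applied as water-diluted emulsion at a predetermined rate to 14-day-old plants; evaluation at three weeks.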

Japanese bulrush = assay: Test Example 1: herbicidal activity, application before weed generation under submerged conditions (Table 16, symbol B); assay type: in vivo, Japanese bulrush (Schoenoplectus juncoides); settings: amount of applied herbicide 320 g/ha
Procedure, shortened: (§3)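 Alluvial soil was flooded to 4 cm depth, weed seeds were sown mixed and 2.5-leaf rice seedlings were transplanted. On sowing day, the compound's emulsion, diluted in water to a set dose, was applied to the water surface. Plants grew at 25–30 °C and were scored 0–5 after three weeks.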

green foxtail [2] = assay: Test Example 5: herbicidal effect by foliage application, plastic box (Table 20, symbol G); assay type: in vivo, green foxtail (Setaria viridis); settings: foliage application, AAH 320 g/ha, evaluated three weeks after application
Procedure, shortened: as §2

lambsquarters = assay: Test Example 5: herbicidal effect by foliage application, plastic box (Table 20, symbol O); assay type: in vivo, lambsquarters (Chenopodium album); settings: foliage application, AAH 320 g/ha, evaluated three weeks after application
Procedure, shortened: as §2

rice flat sedge = assay: Test Example 3: herbicidal effect by foliage application, Wagner pot (Table 18, symbol E); assay type: in vivo, rice flat sedge (Cyperus iria); settings: amount of applied herbicide 320 g/ha
Procedure, shortened: (§4)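 Plants were sown in alluvial soil held under 0.1–0.5 cm standing water and grown 14 days in a greenhouse at 25–30 °C. An emulsifiable formulation, water-diluted to the set dose, was then sprayed onto the foliage, and effects were scored three weeks later using previously defined criteria.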

velvetleaf = assay: Test Example 4: herbicidal effect by soil treatment (Table 19, symbol M); assay type: in vivo, velvetleaf (Abutilon theophrasti); settings: amount of applied herbicide 320 g/ha
Procedure, shortened: as §1

windgrass [3] = assay: Test Example 4: herbicidal effect by soil treatment (Table 19, symbol L); assay type: in vivo, windgrass (Apera spica-venti); settings: amount of applied herbicide 320 g/ha
Procedure, shortened: as §1

Chinese sprangletop = assay: Test Example 3: herbicidal effect by foliage application, Wagner pot (Table 18, symbol D); assay type: in vivo, chinese sprangletop (Leptochloa chinensis); settings: amount of applied herbicide 320 g/ha
Procedure, shortened: as §4

barnyard grass [4] = assay: Test Example 3: herbicidal effect by foliage application, Wagner pot (Table 18, symbol H); assay type: in vivo, barnyard grass (Echinochloa crus-galli); settings: amount of applied herbicide 320 g/ha
Procedure, shortened: as §4

green foxtail [5] = assay: Test Example 4: herbicidal effect by soil treatment (Table 19, symbol G); assay type: in vivo, green foxtail (Setaria viridis); settings: amount of applied herbicide 320 g/ha
Procedure, shortened: as §1

persian speedwell = assay: Test Example 5: herbicidal effect by foliage application, plastic box (Table 20, symbol R); assay type: in vivo, Persian speedwell (Veronica persica); settings: foliage application, AAH 320 g/ha, evaluated three weeks after application
Procedure, shortened: as §2

oval-leafed pondweed = assay: Test Example 1: herbicidal activity, application before weed generation under submerged conditions (Table 16, symbol C); assay type: in vivo, oval-leafed pondweed (Monochoria vaginalis); settings: amount of applied herbicide 320 g/ha
Procedure, shortened: as §3

wild oat = assay: Test Example 5: herbicidal effect by foliage application, plastic box (Table 20, symbol I); assay type: in vivo, wild oat (Avena fatua); settings: foliage application, AAH 320 g/ha, evaluated three weeks after application
Procedure, shortened: as §2

windgrass [6] = assay: Test Example 5: herbicidal effect by foliage application, plastic box (Table 20, symbol L); assay type: in vivo, windgrass (Apera spica-venti); settings: foliage application, AAH 320 g/ha, evaluated three weeks after application
Procedure, shortened: as §2

barnyard grass [7] = assay: Test Example 4: herbicidal effect by soil treatment (Table 19, symbol H); assay type: in vivo, barnyard grass (Echinochloa crus-galli); settings: amount of applied herbicide 320 g/ha
Procedure, shortened: as §1

Row | Structure (SMILES) | herbicidal effect, N: redroot pigweed (redroot pigweed) | herbicidal effect, F: southern crabgrass (southern crabgrass) | H: barnyard grass, herbicidal effect (criteria 0-5) (barnyard grass [1]) | Herbicidal effect, B: Japanese bulrush (Japanese bulrush) | G: green foxtail, herbicidal effect (criteria 0-5) (green foxtail [2]) | O: lambsquarters, herbicidal effect (criteria 0-5) (lambsquarters) | herbicidal effect on E: rice flat sedge (rice flat sedge) | herbicidal effect, M: velvetleaf (velvetleaf) | herbicidal effect, L: windgrass (windgrass [3]) | herbicidal effect on D: Chinese sprangletop (Chinese sprangletop) | herbicidal effect on H: barnyard grass (barnyard grass [4]) | herbicidal effect, G: green foxtail (green foxtail [5]) | R: persian speedwell, herbicidal effect (criteria 0-5) (persian speedwell) | Herbicidal effect, C: oval-leafed pondweed (oval-leafed pondweed) | I: wild oat, herbicidal effect (criteria 0-5) (wild oat) | L: windgrass, herbicidal effect (criteria 0-5) (windgrass [6]) | herbicidal effect, H: barnyard grass (barnyard grass [7])
1 | Cc1nn(C)c(=O)c(-c2c(-c3cnccc3C(F)(F)F)sc3ccc(F)cc23)c1O [2-387] | 5 (Herbicidal rate of 90% or more (almost completely withered)) | 3 (Herbicidal rate of 40% or more and less than 70%) | 5 (Herbicidal rate of 90% or more (almost completely withered)) | 3 (Herbicidal rate of 40% or more and less than 70%) | 3 (Herbicidal rate of 40% or more and less than 70%) | 5 (Herbicidal rate of 90% or more (almost completely withered)) | 5 (Herbicidal rate of 90% or more (almost completely withered)) | 3 (Herbicidal rate of 40% or more and less than 70%) | 3 (Herbicidal rate of 40% or more and less than 70%) | 5 (Herbicidal rate of 90% or more (almost completely withered)) | 5 (Herbicidal rate of 90% or more (almost completely withered)) | 3 (Herbicidal rate of 40% or more and less than 70%) | 5 (Herbicidal rate of 90% or more (almost completely withered)) | 0 (Herbicidal rate of 5% or less (almost no effect)) | 4 (Herbicidal rate of 70% or more and less than 90%) | 5 (Herbicidal rate of 90% or more (almost completely withered)) | 
2 | CCCC(=O)Oc1c(C)nn(C)c(=O)c1-c1c(-c2ccc(Cl)s2)sc2ccc(F)cc12 [2-391] | 5 (Herbicidal rate of 90% or more (almost completely withered)) | 5 (Herbicidal rate of 90% or more (almost completely withered)) | 5 (Herbicidal rate of 90% or more (almost completely withered)) | 4 (Herbicidal rate of 70% or more and less than 90%) | 5 (Herbicidal rate of 90% or more (almost completely withered)) | 4 (Herbicidal rate of 70% or more and less than 90%) | 5 (Herbicidal rate of 90% or more (almost completely withered)) | 3 (Herbicidal rate of 40% or more and less than 70%) | 3 (Herbicidal rate of 40% or more and less than 70%) | 4 (Herbicidal rate of 70% or more and less than 90%) | 5 (Herbicidal rate of 90% or more (almost completely withered)) | 4 (Herbicidal rate of 70% or more and less than 90%) | 5 (Herbicidal rate of 90% or more (almost completely withered)) | 5 (Herbicidal rate of 90% or more (almost completely withered)) | 3 (Herbicidal rate of 40% or more and less than 70%) | 4 (Herbicidal rate of 70% or more and less than 90%) | 4 (Herbicidal rate of 70% or more and less than 90%)
